# ChEMBL document CHEMBL5244254, “Potential treatment methods targeting 2019-nCoV infection” (Eur J Med Chem, 2020)
# Assays:
# West Nile virus [1] = assay: Antiviral activity against West Nile virus Eg101 infected in african green monkey Vero cells; format: functional, organism-based
# [2] = test system: Tick-borne encephalitis virus; assay: Antiviral activity against Tick-borne encephalitis virus Hypr infected in african green monkey Vero cells; format: functional, organism-based
# Zika virus [3] = assay: Antiviral activity against Zika virus MR-766 infected in african green monkey Vero cells; format: functional, organism-based; conditions: MR-766, Vero
# West Nile virus [4] = assay: Antiviral activity against West Nile virus 13-104 infected in african green monkey Vero cells; format: functional, organism-based; conditions: 13-104, Vero
# Zika virus [5] = assay: Antiviral activity against Zika virus Paraiba-01 infected in african green monkey Vero cells; format: functional, organism-based; conditions: Paraiba-01, Vero
# SARS-CoV-2 [6] = assay: Antiviral activity against Severe acute respiratory syndrome coronavirus 2 incubated for 48 hrs by TCID50 assay; format: functional, organism-based; conditions: Severe acute respiratory syndrome coronavirus 2, 48 h
# [7] = Cytotoxicity against African green monkey Vero E6 cells assessed as cell growth inhibition incubated for 24 hrs by CCK8 assay; format: toxicity, cell-based, Vero C1008; conditions: chlorocebus sabaeus
# [8] = Inhibition of Severe acute respiratory syndrome coronavirus 3CL protease; parameters: species or system Severe acute respiratory syndrome-related coronavirus
# [9] = Inhibition of Severe acute respiratory syndrome coronavirus CYP3A4; format: ADME, Severe acute respiratory syndrome-related coronavirus
# [10] = Cytotoxicity against African green monkey Vero E6 cells assessed as cell growth inhibition incubated for 48 hrs; format: toxicity, cell-based, Vero C1008; conditions: chlorocebus sabaeus
# SARS-CoV-2 [11] = assay: Antiviral activity against Severe acute respiratory syndrome coronavirus 2; format: functional, organism-based
# SARS-CoV [12] = assay: Antiviral activity against Severe acute respiratory syndrome coronavirus; format: functional, organism-based; conditions: Severe acute respiratory syndrome-related coronavirus
# [13] = Selectivity ratio of CC50 for African green monkey Vero E6 cells to EC50 for Severe acute respiratory syndrome coronavirus […]; format: toxicity, Vero C1008; conditions: read-out: Ratio CC50/EC50
# SARS-CoV-2 [14] = assay: Antiviral activity against Severe acute respiratory syndrome coronavirus 2 infected in African green monkey Vero cells incubated for 24 to 48 hrs; format: functional, organism-based; conditions: Severe acute respiratory syndrome coronavirus 2, Vero
# [15] = Selectivity ratio of CC50 for African green monkey Vero E6 cells to EC50 for Severe acute respiratory syndrome coronavirus infected in African green monkey Vero E6 cells; format: toxicity, Vero C1008; conditions: read-out: Ratio CC50/EC50
# SARS-CoV [16] = assay: Antiviral activity against Severe acute respiratory syndrome coronavirus infected in African green monkey Vero E6 cells; format: functional, organism-based; conditions: Severe acute respiratory syndrome-related coronavirus, Vero C1008
# [17] = Cytotoxicity against African green monkey Vero E6 cells assessed as cell growth inhibition incubated for 48 hrs by CCK8 assay; format: toxicity, cell-based, Vero C1008; conditions: chlorocebus sabaeus
# Ebolavirus = assay: Antiviral activity against Ebolavirus infected in African green monkey Vero E6 cells; format: functional, organism-based; conditions: Orthoebolavirus, Vero C1008
smiles,measurement,setting,value
CCOC(=O)c1c(CSc2ccccc2)n(C)c2cc(Br)c(O)c(CN(C)C)c12 [UMIFENOVIR],EC50,West Nile virus [1],10.6 µM
same,EC50,[2],10.6 µM
same,EC50,Zika virus [3],10.6 µM
same,EC50,West Nile virus [4],10.6 µM
same,EC50,Zika virus [5],10.6 µM
Cc1cccc(C)c1OCC(=O)N[C@@H](Cc1ccccc1)[C@@H](O)C[C@H](Cc1ccccc1)NC(=O)[C@H](C(C)C)N1CCCNC1=O [LOPINAVIR],EC50,SARS-CoV-2 [6],26.1 µM
O=C[C@H](C[C@@H]1CCNC1=O)NC(=O)[C@H](CC1CCCCC1)NC(=O)c1cc2ccccc2[nH]1,CC50 at 24 h,[7],> 100 µM
Cc1cc(C(=O)N[C@@H](C)C(=O)N[C@H](C(=O)N[C@@H](CC(C)C)C(=O)N[C@H](/C=C/C(=O)OCc2ccccc2)C[C@@H]2CCNC2=O)C(C)C)no1,EC50,[8],16.8 µM
CC(C)c1nc(CN(C)C(=O)N[C@H](C(=O)N[C@@H](Cc2ccccc2)C[C@H](O)[C@H](Cc2ccccc2)NC(=O)OCc2cncs2)C(C)C)cs1 [RITONAVIR],EC50,[9],> 100 µM
CCOC(=O)C1=C[C@@H](OC(CC)CC)[C@H](NC(C)=O)[C@@H](N)C1 [OSELTAMIVIR],CC50 at 48 h,[10],> 100 µM
same,EC50,SARS-CoV-2 [11],> 100 µM
CC(C)(C)OC(=O)Nc1cccn([C@@H](CC2CC2)C(=O)N[C@H](CC(=O)NCc2ccccc2)C[C@@H]2CCNC2=O)c1=O,EC50,[8],4 µM
NC(=O)c1ncn([C@@H]2O[C@H](CO)[C@@H](O)[C@H]2O)n1 [RIBAVIRIN],EC50,SARS-CoV [12],> 100 µM
O=C[C@H](C[C@@H]1CCNC1=O)NC(=O)[C@H](Cc1cccc(F)c1)NC(=O)c1cc2ccccc2[nH]1,selectivity ratio,[13],> 139
same,CC50 at 24 h,[7],> 100 µM
CCN(CCO)CCCC(C)Nc1ccnc2cc(Cl)ccc12 (configuration not stated) [HYDROXYCHLOROQUINE],EC50,SARS-CoV-2 [14],0.72 µM
CCN(CC)CCCC(C)Nc1ccnc2cc(Cl)ccc12 (configuration not stated) [CHLOROQUINE],selectivity ratio,[15],> 88.5
same,EC50,SARS-CoV [16],1.13 µM
same,CC50 at 48 h,[17],> 100 µM
NC(=O)c1nc(F)cnc1O,selectivity ratio,[15],> 6.46
same,CC50 at 48 h,[17],> 400 µM
same,EC50,Ebolavirus,10.5 µg/mL
